Results: ChEMBL document CHEMBL3272320, “Antidepressant and anticonvulsant activity of 1-(5-phenyl-4-oxazolin-2-yl)-4-substituted piperazines” (1976)
Active and inactive are the calls of the source. No cut-off for these calls is given here.

Legend:
Mus musculus [1] = test: Antidepressant activity in mouse at […] after 4 hrs by Dopa potentiation test; assay type: functional, organism-based
Mus musculus [2] = test: Antidepressant activity in po dosed mouse after 4 hrs by Dopa potentiation test relative to pemoline; assay type: functional
Mus musculus [3] = test: Anticonvulsant activity in mouse assessed as protection against tonic extensor component of audiogenic seizures at 100 mg/kg, po; assay type: functional

SMILES	Activity (Mus musculus [1])	fold change (FC) (Mus musculus [2])	Activity (Mus musculus [3]) [%]
O=C1N=C(N2CCN(C(=O)/C=C/c3ccc(F)cc3)CC2)OC1c1ccccc1 (configuration not stated)	Active	2	–
COc1ccc(NC(=O)N2CCN(C3=NC(=O)C(c4ccccc4)O3)CC2)cc1 (configuration not stated)	Active	–	20
O=C1N=C(N2CCN(C(=O)Nc3ccc(Cl)cc3)CC2)OC1c1ccccc1 (configuration not stated)	Active	–	50
NC1=NC(=O)C(c2ccccc2)O1 (configuration not stated) [PEMOLINE]	Active	–	90
COc1cc(/C=C/C(=O)N2CCN(C3=NC(=O)C(c4ccccc4)O3)CC2)cc(Br)c1OC (configuration not stated)	Active	3	–
CNC(=O)N1CCN(C2=NC(=O)C(c3ccccc3)O2)CC1 (configuration not stated)	Active	–	50
COc1cc(/C=C/C(=O)N2CCN(C3=NC(=O)C(c4ccccc4)O3)CC2)cc(OC)c1OC (configuration not stated)	Active	2.5	–
NC(=O)N1CCN(C2=NC(=O)C(c3ccccc3)O2)CC1 (configuration not stated)	Active	–	10
O=C1N=C(N2CCN(C(=O)Nc3ccccc3)CC2)OC1c1ccccc1 (configuration not stated)	Active	–	50
CCN(CC)C(=O)N1CCN(C2=NC(=O)C(c3ccccc3)O2)CC1 (configuration not stated)	Active	–	60
COc1ccc(/C=C/C(=O)N2CCN(C3=NC(=O)C(c4ccccc4)O3)CC2)cc1 (configuration not stated)	Active	–	–
COc1cc(/C(C)=C/C(=O)N2CCN(C3=NC(=O)C(c4ccccc4)O3)CC2)cc(OC)c1OC (configuration not stated)	Active	–	–
